{"source": "paper PMC12254266", "about": "“Multicolored sequential resonance energy transfer for detection of simultaneous ligand binding at G protein-coupled receptors” (Nature Communications, 2025)", "molecular_target": "FFA1-Nluc (Homo sapiens, UniProt O14842)", "sequence (O14842 whole entry)": "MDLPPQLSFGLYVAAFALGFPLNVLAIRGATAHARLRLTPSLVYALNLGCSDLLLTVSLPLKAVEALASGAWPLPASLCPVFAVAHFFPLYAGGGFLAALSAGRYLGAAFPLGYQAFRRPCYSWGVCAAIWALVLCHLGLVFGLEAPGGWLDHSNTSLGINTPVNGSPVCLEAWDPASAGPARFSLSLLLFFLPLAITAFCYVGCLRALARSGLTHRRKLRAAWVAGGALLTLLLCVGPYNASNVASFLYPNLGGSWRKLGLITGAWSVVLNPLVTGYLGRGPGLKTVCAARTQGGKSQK", "assay": "Ca2+ mobilisation antagonism of FFA1 agonists (TUG-905, T360) in Flp-In T-REx 293 cells expressing FFA1-Nluc", "type": "cell-based", "set-up": "expressed in transfected cells", "experimental": "Nluc-FFA1, FFA1-Nluc or untagged FFA1 Flp-In T-REx 293 cells were plated at 50,000 cells per well in poly-D-lysine coated black clear bottom 96-well plates. Cells were then cultured for 24 h until reaching confluency before culture medium was replaced with medium containing 100 ng/mL of doxycycline to induce receptor expression. Cells were cultured for a further 24 h before the assay. On the day of the assay culture medium was removed and replaced with medium containing 3 μM Fura2-AM Ca^2+ dye. […] Fura2 fluorescent emission at 520 nm following excitation with each of 340 and 380 nm was measured in regular intervals both before and after adding test compounds for a total of 90 s per well. Calcium responses were determined by taking the peak 340/380 ratio after first subtracting the ratios obtained prior to addition of test compound. […]\nCa2+ mobilization responses were measured in\nFlp-In T-REx 293 cells expressing FFA1-Nluc. Ca2+ responses to increasing concentrations\npre-treated with 10 μM PPTQ. The mode of antagonism for PPTQ was assessed by\nN=3 (A-D, F, H) or N=4 (E, G) independent experiments. S ource data are provided as a […]", "note": "“And” between values parts separate entries of the source, which are not always exact repeats. Equal values may be shown once."}
{"smiles": "COc1ccc(CCCC(C)(C)C)c(N2CCC(COc3cccc(C(CC(=O)O)C4CC4)c3)CC2)c1.O=C(O)C(F)(F)F", "note": "(stereo not shown) [T360]", "values": [{"measurement": "Ca2% Response (%)", "setting": "log[T360] -5, Veh (no antagonist), Sup Figure 6B/6D", "result": "93.75% and 106.25% and 103.05% and 96.95%"}, {"measurement": "Ca2% Response (%)", "setting": "log[T360] -5, with 1 μM GW1100", "result": "103.36% and 82.58% and 106.13% and 87.84% and 101.04% and 85.87%"}, {"measurement": "Ca2% Response (%)", "setting": "log[T360] -6, 10 μΜ (antagonist not given), Sup Figure 6F", "result": "76.18% and 67.98% and 49.56% and 55.62% and 87.66% and 92.64%"}, {"measurement": "Ca2% Response (%)", "setting": "log[T360] -6, Veh (no antagonist), Sup Figure 6B/6D", "result": "104.34% and 101.89% and 110.55% and 104.28% and 99.18% and 100.82%"}, {"measurement": "Ca2% Response (%)", "setting": "log[T360] -6, Veh (no antagonist), Sup Figure 6F", "result": "99.06% and 95.34% and 97.85% and 90.61% and 102.43% and 99.32%"}, {"measurement": "Ca2% Response (%)", "setting": "log[T360] -6, column head 1.0 μM (antagonist not given), Sup Figure 6F", "result": "76.88% and 59.19% and 87.71% and 76.79% and 92.25% and 102.12%"}, {"measurement": "Ca2% Response (%)", "setting": "log[T360] -6, with 1 μM GW1100", "result": "91.67% and 83.66% and 88.97% and 81.49% and 113.97% and 109.62%"}, {"measurement": "Ca2% Response (%)", "setting": "log[T360] -6.5, Veh (no antagonist), Sup Figure 6F", "result": "94.10% and 96.59% and 92.66% and 91.86% and 93.32% and 89.24%"}, {"measurement": "Ca2% Response (%)", "setting": "log[T360] -6.5, column head 1.0 μM (antagonist not given), Sup Figure 6F", "result": "60.34% and 48.04% and 59.96% and 55.53% and 61.67% and 49.63%"}, {"measurement": "Ca2% Response (%)", "setting": "log[T360] -7, Veh (no antagonist), Sup Figure 6B/6D", "result": "82.83% and 93.76% and 57.76% and 86.64% and 99.93%"}, {"measurement": "Ca2% Response (%)", "setting": "log[T360] -7, Veh (no antagonist), Sup Figure 6F", "result": "93.07% and 80.87% and 91.43% and 68.96% and 59.63% and 63.91%"}, {"measurement": "Ca2% Response (%)", "setting": "log[T360] -7, column head 1.0 μM (antagonist not given), Sup Figure 6F", "result": "3.96% and 7.11% and 12.73% and 6.84% and 9.24% and 5.08%"}, {"measurement": "Ca2% Response (%)", "setting": "log[T360] -8, 10 μΜ (antagonist not given), Sup Figure 6F", "result": "1.71% and -1.05% and -0.90%"}, {"measurement": "Ca2% Response (%)", "setting": "log[T360] -8, column head 1.0 μM (antagonist not given), Sup Figure 6F", "result": "-0.81% and -3.31% and 3.71% and 5.53%"}, {"measurement": "Ca2% Response (%)", "setting": "log[T360] -9, Veh (no antagonist), Sup Figure 6B/6D", "result": "2.38% and -2.45% and 0.48% and 0.09% and -1.34% and 1.34%"}, {"measurement": "Ca2% Response (%)", "setting": "log[T360] -11, Veh (no antagonist), Sup Figure 6B/6D", "result": "-3.34% and -2.39% and -1.53% and 0.46% and 1.72% and -0.55%"}]}
